One block for each compound: values may come before it.
Assay: solvent given as SMILES

SMILES: c1ccc(/C(=C(\c2ccccc2)c2cc(-c3ccc(-c4ccccc4)cc3)ccc2-c2ccc(-c3ccccc3)cc2)c2cc(-c3ccc(-c4ccccc4)cc3)ccc2-c2ccc(-c3ccccc3)cc2)cc1
emission maximum (in C1CCOC1): 496 nm

SMILES: Cc1ccccc1-c1ccccc1C
emission maximum (in C1CCCCC1): 318.98 nm

SMILES: CC(C)(C(=O)c1ccc(N2c3ccccc3Oc3ccccc32)cc1)C(=O)c1ccc(N2c3ccccc3Oc3ccccc32)cc1
emission maximum (in Cc1ccccc1): 562 nm
emission maximum (in c1ccc2c(c1)c1ccccc1n2-c1ccc(-c2ccc(-n3c4ccccc4c4ccccc43)cc2)cc1): 520.81 nm

SMILES: CCN1/C(=C\c2c(-c3ccc(N(C)C)cc3)c(=O)c2=O)C=Cc2ccccc21
emission maximum (in C1CCCCC1): 427 nm
emission maximum (in Cc1ccccc1): 434 nm
emission maximum (in ClCCl): 588 nm

SMILES: COc1ccc(C#Cc2ccc3ccc(=O)oc3c2)cc1
emission maximum (in CC#N): 465 nm

SMILES: CCCCCCCCCn1c(-c2cc(-c3nc4ccc(C)cc4n3CCCCCCCCC)cc(-c3nc4ccc(C)cc4n3CCCCCCCCC)c2)nc2ccc(C)cc21
emission maximum (in C1CCOC1): 371 nm

SMILES: COc1ccc(-c2nc(-c3ccccc3)c(N(c3ccccc3)c3ccccc3)s2)cc1
emission maximum (in ClC(Cl)Cl): 457 nm

SMILES: N#Cc1c(-n2c3ccccc3c3ccccc32)c(-n2c3ccccc3c3ccccc32)c(C#N)c(-n2c3ccccc3c3ccccc32)c1-n1c2ccccc2c2ccccc21
emission maximum (in Cc1ccccc1): 535 nm

SMILES: COc1c2ccccc2c(OC)c2c(C#CC(C)(C)C)c3cc4sccc4cc3c(C#CC(C)(C)C)c12
emission maximum (in ClCCl): 634 nm

SMILES: Cc1ccsc1-c1ccc(-c2ccc(-c3sccc3C)s2)s1
emission maximum (in CCCCCCCCCCCCCC): 473 nm

SMILES: Nc1ncc2nc[nH]c2n1
emission maximum (in O): 380 nm

SMILES: CCn1c(-c2ccc(-c3cccc4ccccc34)cc2)c(-c2ccc3ccccc3c2)c(-c2ccc3ccccc3c2)c1-c1ccc(-c2cccc3ccccc23)cc1
emission maximum (in CCOC(C)=O): 429 nm

SMILES: CCN(CC)c1cccc2c1ccc1c(=O)oc(-c3ccc(C(F)(F)F)cc3)cc12
emission maximum (in CC(C)=O): 604 nm
emission maximum (in CCCCCC): 469 nm
emission maximum (in CCCCCCCCO): 561 nm
emission maximum (in CCCCO): 578 nm
emission maximum (in CCCO): 587 nm
emission maximum (in CCO): 599 nm
emission maximum (in CCOC(C)=O): 568 nm
emission maximum (in CN(C)C=O): 613 nm
emission maximum (in CO): 604 nm
emission maximum (in ClC(Cl)Cl): 542 nm

SMILES: O=c1cc(-c2ccccc2)oc(-c2ccc(-c3nc4ccccn4c3NC3CCCCC3)cc2)c1
emission maximum (in ClCCl): 508 nm

SMILES: F[B-]1(F)Oc2ccc3ccccc3c2-c2c3c(c4c([n+]21)CCc1ccccc1-4)CCc1ccccc1-3
emission maximum (in ClCCl): 476 nm

SMILES: Cc1cc2ccc(-c3cccc4cccc(-c5ccc6cc(C)c(=O)oc6c5)c34)cc2oc1=O
emission maximum (in C1CCCCC1): 392 nm
emission maximum (in C1COCCO1): 399 nm
emission maximum (in CC#N): 420 nm
emission maximum (in CCO): 442 nm
emission maximum (in CCOC(C)=O): 403 nm
emission maximum (in CN(C)C=O): 417 nm
emission maximum (in CO): 452 nm
emission maximum (in c1ccccc1): 398 nm

SMILES: CCCCOC(=O)c1cc(Oc2ccc(OC)cc2)c2c3c(Cl)cc4c5c(cc(Cl)c(c6c(Oc7ccc(OC)cc7)cc(C(=O)OCCCC)c1c26)c53)C(=O)N(c1c(C(C)C)cccc1C(C)C)C4=O
emission maximum (in Cc1ccccc1): 599 nm

SMILES: CCn1c2ccccc2c2cc(/C=C/c3cccc[n+]3CCCS(=O)(=O)[O-])ccc21
emission maximum (in C1CCOC1): 559 nm
emission maximum (in CC#N): 565 nm
emission maximum (in CC(C)=O): 565 nm
emission maximum (in Cc1ccccc1): 590 nm

SMILES: CC1(C)CCc2c(c3ccccc3c3nc4ccccc4nc23)O1
emission maximum (in C1CCCCC1): 459.98 nm
emission maximum (in C1CCOC1): 483.09 nm
emission maximum (in CN(C)C=O): 501 nm
emission maximum (in CO): 510.99 nm
emission maximum (in ClC(Cl)Cl): 490.92 nm
emission maximum (in c1ccccc1): 471.03 nm

SMILES: CC(C)c1cc(C(C)C)c(B2c3cc(-n4c5ccccc5c5ccccc54)ccc3N(c3ccccc3)c3ccc(-n4c5ccccc5c5ccccc54)cc32)c(C(C)C)c1
emission maximum (in C1CCOC1): 442.52 nm
emission maximum (in CCOC(C)=O): 442.52 nm
emission maximum (in Cc1ccccc1): 442.52 nm
emission maximum (in ClCCl): 442.52 nm
emission maximum (in c1cc(-c2cccc(-n3c4ccccc4c4ccccc43)c2)cc(-n2c3ccccc3c3ccccc32)c1): 452 nm

SMILES: CCC1=C(C)C2=Cc3cc(I)cn3[B-](F)(F)[N+]2=C1C
emission maximum (in C1CCCCC1): 538.5 nm
emission maximum (in CC(C)=O): 541 nm
emission maximum (in CCO): 543 nm
emission maximum (in CCOC(C)=O): 540.5 nm
emission maximum (in CO): 542.5 nm
emission maximum (in OCC(F)(F)F): 540 nm

SMILES: COc1ccc(N2c3cc(OC)ccc3N=c3cc4c(cc32)=Nc2cc(C(C)(C)C)cc(C(C)(C)C)c2O4)cc1
emission maximum (in CC#N): 624 nm
emission maximum (in CCCCCC): 587 nm
emission maximum (in CO): 633 nm

SMILES: CCCCC(CC)Cn1c2cc(C#N)c(-c3ccc(N(c4ccccc4)c4ccccc4)cc3)cc2c2cc(-c3ccc(N(c4ccccc4)c4ccccc4)cc3)c(C#N)cc21 (stereo unspecified)
emission maximum (in C1CCCCC1): 450 nm
emission maximum (in C1CCOC1): 494 nm
emission maximum (in CC#N): 542 nm
emission maximum (in CCCCOCCCC): 464 nm
emission maximum (in CCN(CC)CC): 464.65 nm
emission maximum (in CCOC(C)=O): 494 nm
emission maximum (in CCOCC): 472 nm
emission maximum (in CN(C)C=O): 542 nm
emission maximum (in Cc1ccccc1): 473 nm
emission maximum (in ClC=C(Cl)Cl): 478 nm
emission maximum (in ClCCl): 513 nm

SMILES: N#C/C(=N/Nc1ccc(C#N)cc1)c1nc(-c2ccccc2)cs1
emission maximum (in CCO): 486 nm
emission maximum (in Cc1ccccc1): 490 nm
emission maximum (in ClCCl): 492 nm

SMILES: CN(C)c1ccc(C#Cc2cc(C#Cc3ccc(C(F)(F)F)cc3)c3ccc4c(C#Cc5ccc(N(C)C)cc5)cc(C#Cc5ccc(C(F)(F)F)cc5)c5ccc2c3c45)cc1
emission maximum (in ClCCl): 605 nm

SMILES: CCCCC1(CCCC)c2cc(C#Cc3ccc(C=C(c4ccccc4)c4ccccc4)cc3)ccc2-c2ccc(C#Cc3ccc(C=C(c4ccccc4)c4ccccc4)cc3)cc21
emission maximum (in C1CCOC1): 416 nm

SMILES: CCCCCCCCn1c2ccc(/C=C/c3ccc(N(c4ccccc4)c4ccccc4)cc3)cc2c2cc3c(cc21)c1cc(/C=C/c2ccc(N(c4ccccc4)c4ccccc4)cc2)ccc1n3CCCCCCCC
emission maximum (in Cc1ccccc1): 453 nm

SMILES: N#Cc1c(-n2c3ccc(Cl)cc3c3cc(Cl)ccc32)c(C#N)c(-n2c3ccc(Cl)cc3c3cc(Cl)ccc32)c(-n2c3ccc(Cl)cc3c3cc(Cl)ccc32)c1-n1c2ccc(Cl)cc2c2cc(Cl)ccc21
emission maximum (in Cc1ccccc1): 518 nm

SMILES: Cc1ccc(C2=C3C=C(I)C=[N+]3[B-](F)(F)n3c2cc(I)c3I)cc1
emission maximum (in C1CCCCC1): 577.5 nm
emission maximum (in CC#N): 578 nm
emission maximum (in CCO): 582 nm
emission maximum (in CCOC(C)=O): 578.5 nm
emission maximum (in CO): 580 nm
emission maximum (in OCC(F)(F)F): 576 nm

SMILES: COc1ccc(-n2c3ccccc3c3cc(/C=C/C(=C(C#N)C#N)c4ccccc4)ccc32)cc1
emission maximum (in C1CCOC1): 560 nm
emission maximum (in CC#N): 594 nm
emission maximum (in CC(C)=O): 582 nm
emission maximum (in CCOC(C)=O): 550 nm
emission maximum (in CO): 597 nm
emission maximum (in CS(C)=O): 601 nm
emission maximum (in Cc1ccccc1): 526 nm
emission maximum (in ClC(Cl)Cl): 554 nm

SMILES: CN(C)c1ccc2cc(C(/C=C/c3cn(C)c4ccccc34)=C(C#N)C#N)c(=O)oc2c1
emission maximum (in C1CCOC1): 584 nm
emission maximum (in C1COCCO1): 568 nm
emission maximum (in CN(C)C=O): 539 nm
emission maximum (in CS(C)=O): 555 nm
emission maximum (in ClCCl): 583 nm

SMILES: COc1ccc([C@@H]2C[C@](O)(c3ccccn3)C[C@](O)(c3ccccn3)[C@H]2C(=O)c2ccc(N(c3ccccc3)c3ccccc3)cc2)cc1
emission maximum (in C1CCOC1): 495 nm
emission maximum (in CC#N): 522 nm
emission maximum (in CCO): 504 nm
emission maximum (in CCOC(C)=O): 495 nm
emission maximum (in CN(C)C=O): 521 nm
emission maximum (in ClCCl): 513 nm
emission maximum (in c1ccccc1): 468 nm

SMILES: CC(C)(C)c1ccc2c(c1)sc1[n+]2[B-](F)(F)n2c(c3cccc4c(Br)ccc2c43)=N1
emission maximum (in C1CCOC1): 520 nm
emission maximum (in CC#N): 519 nm
emission maximum (in CCCCCC): 516 nm
emission maximum (in Cc1ccccc1): 524 nm
emission maximum (in ClCCl): 552 nm

Next, values leading:

emission maximum (in ClCCl): 445 nm
SMILES: CCOC(=O)c1c(-c2cc3cc(OC)ccc3oc2=O)nn(-c2cccc(Cl)c2)c1C(=O)OCC

emission maximum (in CC#N): 416 nm
emission maximum (in CCO): 418 nm
emission maximum (in O): 414 nm
SMILES: CC(=O)OC[C@@H]1O[C@H](N2C=CC3=Nc4nc(C)[n+](C)cc4CN3C2=O)[C@@H](O)[C@H]1O

emission maximum (in ClCCl): 568 nm
SMILES: c1cc2c3c(c1)ccc1[n+]3[B-]3(Oc4cccc5ccc6[n+](c45)[B-](O2)(O3)n2c-6cc3c4ccccc4c4ccccc4c32)n2c-1cc1c3ccccc3c3ccccc3c12

emission maximum (in CC1CCCCC1): 454 nm
SMILES: CC(C)(C)c1cc2c3cc(C(C)(C)C)c(-c4cc5cc6c7cccc8cccc(c9cc(C(C)(C)C)cc(c5cc4C(C)(C)C)c96)c87)cc3cc3c4cccc5cccc(c(c1)c23)c54

emission maximum (in CCCCCC): 615 nm
emission maximum (in CCCCCCCCO): 623 nm
emission maximum (in CCOC(C)=O): 618 nm
emission maximum (in CN(C)C=O): 624 nm
emission maximum (in ClCCl): 629 nm
SMILES: CC1=CC(C)=[N+]2C1=Cc1c3ccccc3c(C#Cc3ccccc3)n1[B-]2(F)F

emission maximum (in ClC(Cl)Cl): 424 nm
SMILES: c1ccc2c(c1)-c1c(cc3ccc4cccc5ccc1c3c45)C21c2cc(-c3ccc4ccc5cccc6ccc3c4c56)ccc2-c2ccc(-c3ccc4ccc5cccc6ccc3c4c56)cc21

emission maximum (in ClC(Cl)Cl): 528 nm
SMILES: C(#Cc1ccccc1)C(C#Cc1ccccc1)=Cc1ccc(C=C(C#Cc2ccccc2)C#Cc2ccccc2)s1

emission maximum (in ClCCl): 427 nm
SMILES: c1ccc2cc(-c3c4ccccc4c(-c4ccc(-c5ccc(-n6c7ccccc7c7ccccc76)cc5)cc4)c4ccccc34)ccc2c1

emission maximum (in ClCCl): 444 nm
SMILES: CC1(C)C2=C(c3ccccc31)S(=O)(=O)c1ccccc12

emission maximum (in ClC(Cl)Cl): 704 nm
SMILES: Cc1ccc(C2=C(/C=C/C(=O)OC3CC[C@@]4(C)C(=CC[C@H]5[C@@H]6CC[C@H]([C@H](C)CCCC(C)C)[C@@]6(C)CC[C@@H]54)C3)C(c3ccc(C)cc3)=[N+]3C2=Nc2c(-c4ccc(C)cc4)c(Br)c(-c4ccc(C)cc4)n2[B-]3(F)F)cc1 (stereo partly specified)

emission maximum (in ClCCl): 471 nm
SMILES: CN(/N=C1\N=C(N)C2(CCCC2)c2ccccc21)c1ccccc1

emission maximum (in C1COCCO1): 561.95 nm
SMILES: CCC12C(=C3C(=C4c5ccc(-c6ccc(C(C)=O)cc6)cc5S(=O)(=O)C41CC)C(F)(F)C(F)(F)C3(F)F)c1ccc(-c3ccc(C(C)=O)cc3)cc1S2(=O)=O (stereo unspecified)

emission maximum (in ClCCl): 435 nm
SMILES: CSc1ccc(/C=C/c2ccncn2)cc1

emission maximum (in CC#N): 703 nm
emission maximum (in ClCCl): 680 nm
emission maximum (in O): 698 nm
SMILES: CN(C)c1ccc(/C=C/c2cc[n+](C)c3ccccc23)cc1

— the Deep4Chem optical property database
